In patent US20160287589A1, “SUBSTITUTED-IMIDAZOPYRIDAZINES” (BAYER PHARMA AKTIENGESELLSCHAFT, priority 2013, published 2016):

How the values were obtained:
MKNK1 [1] = biological target: T1, MKNK1 (Homo sapiens, UniProt Q9BUB5, T385D); experiment: MKNK1 kinase assay (MKNK1 TR-FRET assay); type: biochemical; conditions: Table 1c; 10 μM ATP, 15 min preincubation
T1 construct: GST (N); purchased Carna Biosciences 02-145; host or cells: insect cells (baculovirus expression system)

MKNK1 [2] = biological target: T1, MKNK1; experiment: MKNK1 kinase high ATP assay (TR-FRET-based); type: biochemical; conditions: Table 2c; 2 mM ATP, 15 min preincubation
In short: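 GST-tagged full-length human MKNK1 (aa 1-424, T344D) from insect cells, preincubated with compound 15 min at 22 °C. Reaction 30 min at 22 °C with 2 mM ATP and 0.06 μM biotinylated peptide in HEPES pH 7.5, Mg2+, DTT. Phosphopeptide detected by TR-FRET (665/622 ratio) with anti-pS6 (pSer236) antibody; normalised to no-inhibitor and no-enzyme controls.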

T1 sequence (Q9BUB5 1-424 isoform Q9BUB5-2 T344D): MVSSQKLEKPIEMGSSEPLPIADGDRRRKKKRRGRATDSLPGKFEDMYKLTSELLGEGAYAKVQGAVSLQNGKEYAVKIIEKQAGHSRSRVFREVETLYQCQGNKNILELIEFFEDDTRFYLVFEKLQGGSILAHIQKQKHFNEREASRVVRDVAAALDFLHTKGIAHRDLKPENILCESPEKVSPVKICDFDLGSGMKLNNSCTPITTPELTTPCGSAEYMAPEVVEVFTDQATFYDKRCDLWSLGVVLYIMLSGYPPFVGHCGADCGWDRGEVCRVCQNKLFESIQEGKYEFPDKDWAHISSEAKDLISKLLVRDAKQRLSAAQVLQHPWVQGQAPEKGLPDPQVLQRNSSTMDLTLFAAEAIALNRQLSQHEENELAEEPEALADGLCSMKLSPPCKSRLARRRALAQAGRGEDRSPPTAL

SMILES: COC[C@H]1CCCN1c1nccc2oc(-c3cnc4ccc(O[C@H](C)CN)nn34)cc12 [III-31, (2R)-2-[(3-{4-[(2R)-2-(Methoxymethyl)pyrrolidin-1-yl]furo[3,2-c]pyridin-2-yl}imidazo[1,2-b]pyridazin-6-yl)oxy]propan-1-amine]
- IC50 (MKNK1 [1]): 0.5 nM
- IC50 (MKNK1 [2]): 3 nM

SMILES: CCN(CCOC)c1nccc2oc(-c3cnc4ccc(O[C@H](C)CN)nn34)cc12 [III-32, 2-(6-{[(2R)-1-Aminopropan-2-yl]oxy}imidazo[1,2-b]pyridazin-3-yl)-N-ethyl-N-(2-methoxyethyl)furo[3,2-c]pyridin-4-amine]
- IC50 (MKNK1 [1]): 0.6 nM
- IC50 (MKNK1 [2]): 1.5 nM

SMILES: CCCN(CCOC)c1nccc2oc(-c3cnc4ccc(O[C@H](C)CN)nn34)cc12 [III-33, 2-(6-{[(2R)-1-Aminopropan-2-yl]oxy}imidazo[1,2-b]pyridazin-3-yl)-N-(2-methoxyethyl)-N-propylfuro[3,2-c]pyridin-4-amine]
- IC50 (MKNK1 [1]): 1.1 nM
- IC50 (MKNK1 [2]): 1.3 nM

SMILES: COCCN(C)c1nccc2oc(-c3cnc4ccc(O[C@H](C)CN)nn34)cc12 [III-34, 2-(6-{[(2R)-1-Aminopropan-2-yl]oxy}imidazo[1,2-b]pyridazin-3-yl)-N-(2-methoxyethyl)-N-methylfuro[3,2-c]pyridin-4-amine]
- IC50 (MKNK1 [1]): 3.5 nM
- IC50 (MKNK1 [2]): 7.4 nM

SMILES: CCN(CCOC)c1nccc2oc(-c3cnc4ccc(OC[C@@H]5COCCN5)nn34)cc12 [III-35, N-Ethyl-N-(2-methoxyethyl)-2-{6-[(3S)-morpholin-3-ylmethoxy]imidazo[1,2-b]pyridazin-3-yl}furo[3,2-c]pyridin-4-amine]
- IC50 (MKNK1 [1]): 1 nM
- IC50 (MKNK1 [2]): 0.9 nM

SMILES: c1cc2oc(-c3cnc4ccc(OC[C@@H]5COCCN5)nn34)cc2c(N2CCOCC2)n1 [III-36, 3-[4-(Morpholin-4-yl)furo[3,2-c]pyridin-2-yl]-6-[(3S)-morpholin-3-ylmethoxy]imidazo[1,2-b]pyridazine]
- IC50 (MKNK1 [1]): 11.6 nM
- IC50 (MKNK1 [2]): 37.3 nM

SMILES: COC[C@H]1CCCN1c1nccc2oc(-c3cnc4ccc(OC[C@@H]5COCCN5)nn34)cc12 [III-37, 3-{4-[(2R)-2-(Methoxymethyl)pyrrolidin-1-yl]furo[3,2-c]pyridin-2-yl}-6-[(3S)-morpholin-3-ylmethoxy]imidazo[1,2-b]pyridazine]
- IC50 (MKNK1 [1]): 1.1 nM
- IC50 (MKNK1 [2]): 11.1 nM

SMILES: CCN(CCOC)c1nccc2oc(-c3cnc4ccc(OC[C@H]5COCCN5)nn34)cc12 [III-38, N-Ethyl-N-(2-methoxyethyl)-2-{6-[(3R)-morpholin-3-ylmethoxy]imidazo[1,2-b]pyridazin-3-yl}furo[3,2-c]pyridin-4-amine]
- IC50 (MKNK1 [1]): 0.5 nM
- IC50 (MKNK1 [2]): 4.8 nM

SMILES: CCN(CCOC(C)(C)C)c1nccc2oc(-c3cnc4ccc(OC[C@@H]5COCCN5)nn34)cc12 [III-39, N-(2-tert-Butoxyethyl)-N-ethyl-2-{6-[(3S)-morpholin-3-ylmethoxy]imidazo-[1,2-b]pyridazin-3-yl}furo[3,2-c]pyridin-4-amine]
- IC50 (MKNK1 [1]): 0.9 nM
- IC50 (MKNK1 [2]): 0.5 nM

SMILES: CCN(CCO)c1nccc2oc(-c3cnc4ccc(OC[C@@H]5COCCN5)nn34)cc12 [III-40, 2-[Ethyl(2-{6-[(3S)-morpholin-3-ylmethoxy]imidazo[1,2-b]pyridazin-3-yl}furo[3,2-c]pyridin-4-yl)amino]ethanol]
- IC50 (MKNK1 [1]): 1.5 nM
- IC50 (MKNK1 [2]): 2.6 nM

SMILES: CCN(CCOC)c1nccc2oc(-c3cnc4ccc(OCC5CCCCN5)nn34)cc12 (stereo not drawn) [III-41, N-Ethyl-N-(2-methoxyethyl)-2-[6-(piperidin-2-ylmethoxy)imidazo[1,2-b]pyridazin-3-yl]furo[3,2-c]pyridin-4-amine]
- IC50 (MKNK1 [1]): 12 nM
- IC50 (MKNK1 [2]): 17.6 nM

SMILES: CS(=O)(=O)CCCOc1ccc2ncc(-c3cc4c(N5CCOCC5)nccc4o3)n2n1 [III-42, 6-[3-(Methylsulfonyl)propoxy]-3-[4-(morpholin-4-yl)furo[3,2-c]pyridin-2-yl]imidazo[1,2-b]pyridazine]
- IC50 (MKNK1 [1]): 2.2 nM
- IC50 (MKNK1 [2]): 4.7 nM

SMILES: CN1CCN(c2nccc3oc(-c4cnc5ccc(OCCCS(C)(=O)=O)nn45)cc23)CC1 [III-43, 3-[4-(4-Methylpiperazin-1-yl)furo[3,2-c]pyridin-2-yl]-6-[3-(methylsulfonyl)-propoxy]imidazo[1,2-b]pyridazine]
- IC50 (MKNK1 [1]): 5.7 nM
- IC50 (MKNK1 [2]): 5.3 nM

SMILES: CS(=O)(=O)CCCOc1ccc2ncc(-c3cc4c(N5CCCC5)nccc4o3)n2n1 [III-44, 6-[3-(Methylsulfonyl)propoxy]-3-[4-(pyrrolidin-1-yl)furo[3,2-c]pyridin-2-yl]imidazo[1,2-b]pyridazine]
- IC50 (MKNK1 [1]): 5.5 nM
- IC50 (MKNK1 [2]): 14.9 nM

SMILES: CS(=O)(=O)CCCOc1ccc2ncc(-c3cc4c(N5CCCCC5)nccc4o3)n2n1 [III-45, 6-[3-(methylsulfonyl)propoxy]-3-[4-(piperidin-1-yl)furo[3,2-c]pyridin-2-yl]imidazo[1,2-b]pyridazine]
- IC50 (MKNK1 [1]): 4.4 nM
- IC50 (MKNK1 [2]): 8.1 nM

SMILES: CN(C)[C@@H]1CCN(c2nccc3oc(-c4cnc5ccc(OCCCS(C)(=O)=O)nn45)cc23)C1 [III-46, (3R)—N,N-Dimethyl-1-(2-{6-[3-(methylsulfonyl)propoxy]imidazo[1,2-b]pyridazin-3-yl}furo[3,2-c]pyridin-4-yl)pyrrolidin-3-amine]
- IC50 (MKNK1 [1]): 3.9 nM
- IC50 (MKNK1 [2]): 3.6 nM

SMILES: CN(CCCN1CCCC1)c1nccc2oc(-c3cnc4ccc(OCCCS(C)(=O)=O)nn34)cc12 [III-47, N-methyl-2-{6-[3-(methylsulfonyl)propoxy]imidazo[1,2-b]pyridazin-3-yl}-N-[3-(pyrrolidin-1-yl)propyl]furo[3,2-c]pyridin-4-amine]
- IC50 (MKNK1 [1]): 13.6 nM
- IC50 (MKNK1 [2]): 21.2 nM

SMILES: CC(C)(C)N1CCN(c2nccc3oc(-c4cnc5ccc(OCCCS(C)(=O)=O)nn45)cc23)CC1 [III-48, 3-[4-(4-tert-Butylpiperazin-1-yl)furo[3,2-c]pyridin-2-yl]-6-[3-(methylsulfonyl)-propoxy]imidazo[1,2-b]pyridazine]
- IC50 (MKNK1 [1]): 11.9 nM
- IC50 (MKNK1 [2]): 32.1 nM

SMILES: CC(C)(C)OC(=O)N1CCN(c2nccc3oc(-c4cnc5ccc(OCCCS(C)(=O)=O)nn45)cc23)CC1 [III-49, tert-Butyl 4-(2-{6-[3-(methylsulfonyl)propoxy]imidazo[1,2-b]pyridazin-3-yl}furo[3,2-c]pyridin-4-yl)piperazine-1-carboxylate]
- IC50 (MKNK1 [1]): 21.3 nM
- IC50 (MKNK1 [2]): 38.5 nM

SMILES: CCN(CCOC)c1nccc2oc(-c3cnc4ccc(OCCCS(C)(=O)=O)nn34)cc12 [III-50, N-Ethyl-N-(2-methoxyethyl)-2-{6-[3-(methylsulfonyl)propoxy]imidazo[1,2-b]pyridazin-3-yl}furo[3,2-c]pyridin-4-amine]
- IC50 (MKNK1 [1]): 1.4 nM
- IC50 (MKNK1 [2]): 0.5 nM

SMILES: CC(=O)N1CCN(c2nccc3oc(-c4cnc5ccc(OCCCS(C)(=O)=O)nn45)cc23)CC1 [III-51, 1-[4-(2-{6-[3-(Methylsulfonyl)propoxy]imidazo[1,2-b]pyridazin-3-yl}furo[3,2-c]pyridin-4-yl)piperazin-1-yl]ethanone]
- IC50 (MKNK1 [1]): 7.3 nM
- IC50 (MKNK1 [2]): 14.2 nM

SMILES: COCCN(C)c1nccc2oc(-c3cnc4ccc(OCCCS(C)(=O)=O)nn34)cc12 [III-52, N-(2-Methoxyethyl)-N-methyl-2-{6-[3-(methylsulfonyl)propoxy]imidazo[1,2-b]pyridazin-3-yl}furo[3,2-c]pyridin-4-amine]
- IC50 (MKNK1 [1]): 1.8 nM
- IC50 (MKNK1 [2]): 3.7 nM

SMILES: C[C@@H]1CN(c2nccc3oc(-c4cnc5ccc(OCCCS(C)(=O)=O)nn45)cc23)C[C@H](C)O1 [III-53, 3-{4-[(2R,6S)-2,6-Dimethylmorpholin-4-yl]furo[3,2-c]pyridin-2-yl}-6-[3-(methyl-sulfonyl)propoxy]imidazo[1,2-b]pyridazine]
- IC50 (MKNK1 [1]): 8.7 nM
- IC50 (MKNK1 [2]): 26.7 nM

SMILES: CN(CCCO)c1nccc2oc(-c3cnc4ccc(OCCCS(C)(=O)=O)nn34)cc12 [III-54, 3-[Methyl(2-{6-[3-(methylsulfonyl)propoxy]imidazo[1,2-b]pyridazin-3-yl}furo[3,2-c]pyridin-4-yl)amino]propan-1-ol]
- IC50 (MKNK1 [1]): 2.8 nM
- IC50 (MKNK1 [2]): 6.2 nM

SMILES: CN(C)C1CCN(c2nccc3oc(-c4cnc5ccc(OCCCS(C)(=O)=O)nn45)cc23)CC1 [III-55, N,N-Dimethyl-1-(2-{6-[3-(methylsulfonyl)propoxy]imidazo[1,2-b]pyridazin-3-yl}furo[3,2-c]pyridin-4-yl)piperidin-4-amine]
- IC50 (MKNK1 [1]): 3.7 nM
- IC50 (MKNK1 [2]): 7.8 nM

SMILES: CS(=O)(=O)CCCOc1ccc2ncc(-c3cc4c(N5CCN(c6ccccc6)CC5)nccc4o3)n2n1 [III-56, 6-[3-(Methylsulfonyl)propoxy]-3-[4-(4-phenylpiperazin-1-yl)furo[3,2-c]pyridin-2-yl]imidazo[1,2-b]pyridazine]
- IC50 (MKNK1 [1]): 20.8 nM
- IC50 (MKNK1 [2]): 16.9 nM

SMILES: CS(=O)(=O)CCCOc1ccc2ncc(-c3cc4c(N5CCC(CO)CC5)nccc4o3)n2n1 [III-57, [1-(2-{6-[3-(Methylsulfonyl)propoxy]imidazo[1,2-b]pyridazin-3-yl}furo[3,2-c]pyridin-4-yl)piperidin-4-yl]methanol]
- IC50 (MKNK1 [1]): 1.5 nM
- IC50 (MKNK1 [2]): 3.6 nM

SMILES: C[C@@H]1COCCN1c1nccc2oc(-c3cnc4ccc(OCCCS(C)(=O)=O)nn34)cc12 [III-58, 3-{4-[(3R)-3-Methylmorpholin-4-yl]furo[3,2-c]pyridin-2-yl}-6-[3-(methyl-sulfonyl)propoxy]imidazo[1,2-b]pyridazine]
- IC50 (MKNK1 [1]): 1 nM
- IC50 (MKNK1 [2]): 4.4 nM

SMILES: CN1CCN(c2nccc3oc(-c4cnc5ccc(OC[C@H]6CCC(=O)N6)nn45)cc23)CC1 [III-61, (5R)-5-[({3-[4-(4-Methylpiperazin-1-yl)furo[3,2-c]pyridin-2-yl]imidazo[1,2-b]pyridazin-6-yl}oxy)methyl]pyrrolidin-2-one]
- IC50 (MKNK1 [1]): 1 nM
- IC50 (MKNK1 [2]): 1.2 nM

SMILES: O=C1CC[C@H](COc2ccc3ncc(-c4cc5c(N6CCCCC6)nccc5o4)n3n2)N1 [III-62, (5R)-5-[({3-[4-(Piperidin-1-yl)furo[3,2-c]pyridin-2-yl]imidazo[1,2-b]pyridazin-6-yl}oxy)methyl]pyrrolidin-2-one]
- IC50 (MKNK1 [1]): 2.4 nM
- IC50 (MKNK1 [2]): 1 nM
